From US12583835B2, “Crystal form of nitroxoline prodrug, pharmaceutical composition containing same, and preparation method therefor and application thereof” (Jiangsu Yahong Meditech Co., Ltd., priority 2020, dated 2026)
Where “and” joins values, the source holds several entries; their conditions need not be identical. Equal entries are not always repeated.

Legend:
[1] = Pharmacokinetic assay in dogs; format: in vivo; conditions: beagles
Text: Nitroxoline is mainly metabolized by Phase II metabolism in the liver with a high metabolism rate, thus the in vivo half-life is short. In this experiment, after a single intravenous or oral administration of nitroxoline and the compound obtained in Example 1 to dogs, the changes in the concentration of the compound nitroxoline in dog plasma were studied, so as to evaluate the in vivo pharmacokinetic behaviors of nitroxoline and the compound obtained in Example 1.
Male beagles (Beijing Marshall Bioresources Co., Ltd., laboratory animal production license No.: SCXK (Beijing) 2016-0001, laboratory animal certificate No.: 11400600001728), 3 beagles per group, weight 10-13 kg, 20-22 months old, were fasted overnight before drug administration with free access to water, and food was given 4 hours after drug administration. The compound to be tested was put into an EP tube, dimethyl sulfoxide, Solutol® and sterile water for injection (the volume ratio of the three was 1:2:17, v:v:v) were added, and the EP tube was sonicated for 20 minutes to fully dissolve the compound (formulation concentration of the compound: 0.005 mmol/mL). The intravenous dose was 0.01 mmol/kg, and the oral dose was 0.1 mmol/kg. 0.3 ml of whole blood was collected from the jugular vein before drug administration (0 hour) and 0.0833, 0.25, 0.5, 0.75, 1, 2, 4, 6, 8, 10 and 12 hours after drug administration (the sampling points were adjusted according to the situation) and placed in a centrifuge tube containing EDTA-K2 (Aldrich Reagents) for anticoagulation, which was placed in crushed ice after sample collection. The tube was centrifuged at 1530 g for 10 minutes within 0.5 hours of sample collection. All clean plasma were isolated and placed in another clean centrifuge tube, which was placed in a −20° C. refrigerator until testing.
A series of solutions for standard curve was prepared. To 10 μL of solutions for standard curve and samples was added 1000 μL of internal standard working solution (a solution of 5 ng/mL verapamil (Aldrich Reagents), 50 ng/mL glibenclamide (Aldrich Reagents) and 50 ng/mL diclofenac (Aldrich Reagents) in acetonitrile) was added, and the resulting solution was vortexed for 5 minutes. After centrifuging at 4° C., 3700 rpm for 10 minutes, 60 μL of the supernatant was collected into a sample tube and mixed well with 120 μL of water, and 10 μL of the mixed solution was injected into the LC/MS system for determination. Pharmacokinetic parameters were calculated using WinNonlin V6.2 non-compartmental model.

[2] = Pharmacokinetic assay in rats; format: in vivo; conditions: SD rats, oral 0.1 mmol/kg, 24 h, individual animals
Text: In this experiment, after a single intravenous or oral administration of nitroxoline and the compound obtained in Example 1 to rats, the changes in the concentration of the compound nitroxoline in rat plasma were studied, so as to evaluate the in vivo pharmacokinetic behaviors of nitroxoline and the compound obtained in Example 1 in rats.
Male SD rats (Beijing Vital River Laboratory Animal Technology Co., Ltd., laboratory animal production license No.: SCXK (Beijing) 2016-0006, laboratory animal certificate No.: 11400700325643), 3 rats per group, weight 180-250 g, 6-7 weeks old, were fasted overnight before drug administration with free access to water, and food was given 4 hours after drug administration. The compound to be tested was put into an EP tube, 1.017 mL dimethyl sulfoxide, 2.035 mL Solutol® and sterile water for injection (the volume ratio of the three was 1:2:17, v:v:v) were added, and the EP tube was sonicated for 20 minutes to fully dissolve the compound (formulation concentration of the compound: 0.005 mmol/mL). […]
Sample to be tested: to 50 μL of plasma sample to be tested was added 5 μL of diluted working solution, then 150 μL of internal standard working solution (a solution of 2 ng/mL diphenhydramine in acetonitrile), and the resulting solution was vortexed for 1 minute. […] Pharmacokinetic parameters were calculated using WinNonlin V6.2 non-compartmental model.

[3] = human; single-arm, open-label, multi-center phase II clinical trial; cited from earlier work
[4] = Stability in liver microsome (mouse); format: in vitro ADME; conditions: 2 μM, 30 minutes, 37° C.
Procedure: (§1) Experimental instruments: thermostatic oscillator (SHA-B, Guohua Instrument); centrifuge (5810R, Eppendorf), mass spectrometer (API4000, Applied), liquid chromatography (LC-30AD, Shimadzu); sampler (CTC Analytics AG System, CTC).
(§2) Experimental procedures: to 100 mM phosphate buffer was added 25 μg/mL alamethicin (Aldrich Reagents), 5 mM magnesium chloride and 0.5 mg/mL microsomes (XENOTECH) to prepare a reaction solution without coenzymes. To a portion of the reaction solution was added 1 mM reduced nicotinamide adenine dinucleotide phosphate (Aldrich Reagents) and 5 mM uridine diphosphate glucuronic acid (Aldrich Reagents) to prepare a reaction solution with coenzymes. […] Immediately after mixing well, 50 μL of the solution was collected as the 0-minute sample, and another 50 μL was collected after 30 minutes of incubation of the remaining sample at 37° C. The proteins in all collected samples were immediately precipitated, and the supernatants were collected by centrifugation, in which the compound concentrations were determined by LC/MS/MS.

[5] = Stability in liver microsome (rat); format: in vitro ADME; conditions: 2 μM, 30 minutes, 37° C.
Procedure: as §1, §2

[6] = Stability in liver microsome (dog); format: in vitro ADME; conditions: 2 μM, 30 minutes, 37° C.
Procedure: as §1, §2

[7] = Stability in liver microsome (human); format: in vitro ADME; conditions: 2 μM, 30 minutes, 37° C.
Procedure: as §1, §2

| SMILES | AUC0-inf of nitroxoline in plasma ([1]; intravenous 0.01 mmol/kg) | AUC0-inf of nitroxoline in plasma ([1]; oral 0.1 mmol/kg) | Plasma concentration of nitroxoline [2] | half-life [3] | Percentage (%) of remaining compound in mouse liver microsomes ([4]; With coenzyme) | Percentage (%) of remaining compound in mouse liver microsomes ([4]; Without coenzyme) | Percentage (%) of remaining compound in rat liver microsomes ([5]; With coenzyme) | Percentage (%) of remaining compound in rat liver microsomes ([5]; Without coenzyme) | Percentage (%) of remaining compound in dog liver microsomes ([6]; With coenzyme) | Percentage (%) of remaining compound in dog liver microsomes ([6]; Without coenzyme) | Percentage (%) of remaining compound in human liver microsomes ([7]; With coenzyme) | Percentage (%) of remaining compound in human liver microsomes ([7]; Without coenzyme) |
| --- | --- | --- | --- | --- | --- | --- | --- | --- | --- | --- | --- | --- |
| O=[N+]([O-])c1ccc(O)c2ncccc12 [Nitroxoline, 5-nitro-8-hydroxyquinoline] | 3300 ng*hmL^−1 | 4780 ng*hmL^−1 | <5.0 ng/mL (2×) and 14.6 ng/mL | 1.22 to 1.44 h |  |  |  |  |  |  |  |  |
| CC(C)C(=O)N1CCC[C@H]1C(=O)OCOc1ccc([N+](=O)[O-])c2cccnc12 [Compound obtained in Example 1, ((5-nitroquinolin-8-yl)oxy)methyl-isobutyryl-L-prolinate] | 1290 ng*hmL^−1 | 8750 ng*hmL^−1 |  |  | 0.09% | 49.07% | 3.64% | 46.82% | 33.13% | 53.50% | 26.92% | 59.42% |
